Assay results as given in US9045466B2, “Amidine compound or salt thereof” (priority 2011, dated 2015).
≈ marks a conversion by molar mass, not a printed value. Structures can show the parent of a compound that is named as a salt. Where two headings read alike, the source gives them in different places.

What was measured:
Experiment in all cases: Fungal susceptibility test, broth microdilution method (MIC)
Format in all cases: cell-based
[1] = system: Aspergillus fumigatus TIMM 0063; settings: TIMM0063, 48 h
Experimental: (§1) The fungal susceptibility tests on test substances were conducted by the broth microdilution method equivalent to Clinical and Laboratory Standards Institute method. The medium used in the susceptibility tests was RPMI1640 adjusted to pH 7.0 with 0.165 mol/L morpholinepropanesulfonic acid (MOPS) and 50% sodium hydroxide (RPMI/MOPS). Each test substance was dissolved in DMSO and serially diluted in 2-fold increments with DMSO on a 96-well microplate. Then, the dilutions were dispensed by 1 μL to a 96-well microplate. Candida albicans TIMM 1623 cultured overnight at 35° C. in Sabouraud's agar medium was suspended in sterile saline. The number of cells was counted under a biological microscope, and the fungal suspension was diluted with RPMI/MOPS to prepare the inoculum solution (approximately 1×10^3 cells/mL). Alternatively, Candida albicans TIMM 1623 stored at −80° C. was diluted with RPMI/MOPS to prepare the inoculum solution (approximately 1×10^3 CFU/mL). Aspergillus fumigatus TIMM 0063 stored at 5° C. was diluted with RPMI/MOPS to prepare the inoculum solution (approximately 1×10^4 CFU/mL). Trichophyton rubrum NBRC 5467 stored at 5° C. or −80° C. was diluted with RPMI/MOPS to prepare the inoculum solution (approximately 2×10^3 CFU/mL). The 199 μL of inoculum solution was dispensed to each well to prepare the microplate containing the designated concentrations of test substance, medium and fungal cells. Candida albicans and Aspergillus fumigatus were cultured at 35° C. for 2 days. Trichophyton rubrum was cultured at 35° C. for 4 days. After the completion of culture, MIC was determined by visual observation. The MICs of Candida albicans and Aspergillus fumigatus were set to the lowest concentration at which approximately 50% growth inhibition was seen, when compared with a growth control without the addition of the test substance. The MIC of Trichophyton rubrum was set to the lowest concentration at which approximately 80% growth inhibition was seen, when compared with a growth control without the addition of the test substance.

[2] = system: Trichophyton rubrum NBRC 5467; settings: NBRC5467, 96 h
Experimental: as §1

[3] = system: Candida albicans TIMM 1623; settings: TIMM1623, 48 h
Experimental: as §1

[4] = RPMI/MOPS pH 7.0, 35° C. for 2 days, visual, lowest concentration with approximately 50% growth inhibition, read-out: MIC (μg/mL) A. fumigatus TIMM 0063
[5] = RPMI/MOPS pH 7.0, 35° C. for 4 days, visual, lowest concentration with approximately 80% growth inhibition, read-out: MIC (μg/mL) T. rubrum NBRC5467
[6] = pH 7, read-out: MIC (μg/mL) A. fumigatus TIMM 0063
[7] = pH 7, read-out: MIC (μg/mL) C. albicans TIMM1623
[8] = pH 7, read-out: MIC (μg/mL) T. rubrum NBRC5467
[9] = RPMI/MOPS pH 7.0, 35° C. for 2 days, visual, lowest concentration with approximately 50% growth inhibition, read-out: MIC (μg/mL) C. albicans TIMM1623

Row | Compound | MIC [3, 7] [µg/mL] | MIC [2, 8] [µg/mL] | further results
1 | Cc1ccc(-c2csc(Cc3cc(C)c(/N=C/N4CCCC4)cc3C)n2)cc1 [Example 1, 2,5-Dimethyl-4-{[4-(4-methylphenyl)-1,3-thiazol-2-yl]methyl}-N-[(E)-pyrrolidin-1-ylmethylidene]aniline] |  |  | MIC [1, 4]: 0.0625 µg/mL (≈ 0.16 µM); MIC [2, 5]: 0.0039 µg/mL (≈ 0.01 µM)
2 | CCN(C)/C=N/c1cc(C)c(Cc2nc(-c3ccc(C)cc3)cs2)cc1C [Example 3, N′-(2,5-Dimethyl-4-{[4-(4-methylphenyl)-1,3-thiazol-2-yl]methyl}phenyl)-N-ethyl-N-methylimidoformamide dihydrochloride] | 0.0156 | 0.0005 | MIC [1, 6]: 0.0156 µg/mL
3 | CCN(C)/C=N/c1cc(C)c(Cc2nc(-c3cnc(C(C)(C)C(F)(F)F)cn3)cs2)cc1C [Example 4, N′-[2,5-Dimethyl-4-({4-[5-(1,1,1-trifluoro-2-methylpropan-2-yl)pyrazin-2-yl]-1,3-thiazol-2-yl}methyl)phenyl]-N-ethyl-N-methylimidoformamide hydrochloride] | 0.0313 | 0.002 | 
4 | CCN(C)/C=N/c1cc(C)c(Cc2nc(-c3ccc(C(=O)OC)cc3)cs2)cc1C [Example 14, Methyl 4-{2-[4-({(E)-[ethyl(methyl)amino]methylidene}amino)-2,5-dimethylbenzyl]-1,3-thiazol-4-yl}benzoate dihydrochloride] | 0.0625 |  | 
5 | CCN(C)/C=N/c1cc(C)c(Cc2nc(-c3ccc(C(C)(C)C)cc3)cs2)cc1C [Example 17, N′-(4-{[4-(4-Tert-butylphenyl)-1,3-thiazol-2-yl]methyl}-2,5-dimethylphenyl)-N-ethyl-N-methylimidoformamide dihydrochloride] | 0.0313 | 0.002 | 
6 | CCN(C)/C=N/c1cc(C)c(Cc2nc(-c3ncc(C(C)(C)C)s3)cs2)cc1C [Example 20, N′-{4-[(5-Tert-butyl-2,4′-bi-1,3-thiazol-2′-yl)methyl]-2,5-dimethylphenyl}-N-ethyl-N-methylimidoformamide dihydrochloride] | 0.0313 | 0.002 | 
7 | CCN(C)/C=N/c1cc(C)c(Cc2nc(-c3ccc(C(=O)NC(C)(C)C)cc3)cs2)cc1C [Example 24, N-Tert-butyl-4-{2-[4-({(E)-[ethyl(methyl)amino]methylidene}amino)-2,5-dimethylbenzyl]-1,3-thiazol-4-yl}benzamide dihydrochloride] | 0.0313 | 0.0039 | 
8 | CCN(C)/C=N/c1cc(C)c(Cc2nc(-c3cnc(OC)cn3)cs2)cc1C [Example 26, N-Ethyl-N′-(4-{[4-(5-methoxypyrazin-2-yl)-1,3-thiazol-2-yl]methyl}-2,5-dimethylphenyl)-N-methylimidoformamide hydrobromide] |  |  | MIC [1, 4]: 0.0625 µg/mL; MIC [3, 9]: 0.0625 µg/mL
9 | CCN(C)/C=N/c1cc(C)c(Cc2nc(C(=O)c3ccc(Cl)cc3)cs2)cc1C [Example 27, N′-[4-({4-[(4-Chlorophenyl)carbonyl]-1,3-thiazol-2-yl}methyl)-2,5-dimethylphenyl]-N-ethyl-N-methylimidoformamide hydrobromide] |  |  | MIC [1, 4]: 0.0625 µg/mL; MIC [3, 9]: 0.0625 µg/mL
10 | CCN(C)/C=N/c1cc(C)c(Cc2nc(C(C)(C)C)cs2)cc1C [Example 29, N′-{4-[(4-Tert-butyl-1,3-thiazol-2-yl)methyl]-2,5-dimethylphenyl}-N-ethyl-N-methylimidoformamide dihydrochloride] | 0.0625 | 0.0039 | 
11 | CCN(C)/C=N/c1cc(C)c(Cc2nc(C(=O)c3ccc(C(F)(F)F)cc3)cs2)cc1C [Example 36, N′-{2,5-Dimethyl-4-[(4-{[4-(trifluoromethyl)phenyl]carbonyl}-1,3-thiazol-2-yl)methyl]phenyl}-N-ethyl-N-methylimidoformamide hydrobromide] |  |  | MIC [3, 9]: 0.0313 µg/mL
12 | CCN(C)/C=N/c1cc(C)c(Cc2nc(-c3ccc(C(=O)N(C)CC)cc3)cs2)cc1C [Example 42, N-Ethyl-4-{2-[4-({(E)-[ethyl(methyl)amino]methylidene}amino)-2,5-dimethylbenzyl]-1,3-thiazol-4-yl}-N-methylbenzamide] |  |  | MIC [3, 9]: 0.0625 µg/mL (≈ 0.139 µM)
13 | CCN(C)/C=N/c1cc(C)c(Cc2nc(-c3cscn3)cs2)cc1C [Example 48, N′-[4-(4,4′-Bi-1,3-thiazol-2-ylmethyl)-2,5-dimethylphenyl]-N-ethyl-N-methylimidoformamide hydrochloride] | 0.0625 | 0.0078 | 
14 | CCN(C)/C=N/c1cc(C)c(Cc2nc(-c3ccc(Cl)cc3)cs2)cc1C [Example 49, N′-(4-{[4-(4-Chlorophenyl)-1,3-thiazol-2-yl]methyl}-2,5-dimethylphenyl)-N-ethyl-N-methylimidoformamide hydrochloride] | 0.0156 |  | MIC [1, 6]: 0.0625 µg/mL
15 | CCN(C)/C=N/c1cc(C)c(Cc2nc(COc3ccc(C)cc3)cs2)cc1C [Example 60, N′-[2,5-Dimethyl-4-({4-[(4-methylphenoxy)methyl]-1,3-thiazol-2-yl}methyl)phenyl]-N-ethyl-N-methylimidoformamide] |  |  | MIC [3, 9]: 0.0156 µg/mL (≈ 0.0383 µM); MIC [2, 5]: 0.001 µg/mL (≈ 0.00245 µM)
16 | CCN(C)/C=N/c1cc(C)c(Cc2nc(-c3ccc4c(c3)CNC4=O)cs2)cc1C [Example 89, N′-(2,5-Dimethyl-4-{[4-(1-oxo-2,3-dihydro-1H-isoindol-5-yl)-1,3-thiazol-2-yl]methyl}phenyl)-N-ethyl-N-methylimidoformamide] |  |  | MIC [2, 5]: 0.0625 µg/mL (≈ 0.149 µM)
17 | CN/C=N/c1cc(C)c(Cc2nc(-c3ccc(C(=O)NC)cc3)cs2)cc1C [Example 95, 4-[2-(2,5-Dimethyl-4-{[(E)-(methylamino)methylidene]amino}benzyl)-1,3-thiazol-4-yl]-N-methylbenzamide] |  |  | MIC [2, 5]: 0.125 µg/mL (≈ 0.318 µM)
18 | CCN(C)/C=N/c1cc(C)c(Cc2nc(C(=O)NC3CCC(F)(F)CC3)cs2)cc1C [Example 96, N-(4,4-Difluorocyclohexyl)-2-[4-({(E)-[ethyl(methyl)amino]methylidene}amino)-2,5-dimethylbenzyl]-1,3-thiazole-4-carboxamide hydrochloride] |  | 0.0313 | 
19 | CCN(C)/C=N/c1cc(C)c(Cc2nc(NC(=O)OC3CCCCC3)cs2)cc1C [Example 97, Cyclohexyl {2-[4-({(E)-[ethyl(methyl)amino]methylidene}amino)-2,5-dimethylbenzyl]-1,3-thiazol-4-yl}carbamate hydrochloride] |  | 0.0078 | 
20 | CCN(C)/C=N/c1cc(C)c(Cc2nc(-c3ccc(C(=O)NC(C)C)cc3)cs2)cc1C [Example 98, 4-{2-[4-({(E)-[Ethyl(methyl)amino]methylidene}amino)-2,5-dimethylbenzyl]-1,3-thiazol-4-yl}-N-(propan-2-yl)benzamide] |  |  | MIC [2, 5]: 0.0156 µg/mL (≈ 0.0348 µM)
21 | CCN(C)/C=N/c1cc(C)c(Cc2nc(-c3ccc(C(=O)NCC(C)(C)C)cc3)cs2)cc1C [Example 99, N-(2,2-Dimethylpropyl)-4-{2-[4-({(E)-[ethyl(methyl)amino]methylidene}amino)-2,5-dimethylbenzyl]-1,3-thiazol-4-yl}benzamide] |  |  | MIC [3, 9]: 0.0625 µg/mL (≈ 0.131 µM)
22 | CCN(C)/C=N/c1cc(C)c(Cc2nc(-c3ccc(C(=O)N4CCC4)cc3)cs2)cc1C [Example 101, N′-[4-({4-[4-(Azetidin-1-ylcarbonyl)phenyl]-1,3-thiazol-2-yl}methyl)-2,5-dimethylphenyl]-N-ethyl-N-methylimidoformamide] |  |  | MIC [2, 5]: 0.0625 µg/mL (≈ 0.14 µM)
23 | CCN(C)/C=N/c1cc(C)c(Cc2nc(NC(=O)OC(C)C)cs2)cc1C [Example 102, Propan-2-yl {2-[4-({(E)-[ethyl(methyl)amino]methylidene}amino)-2,5-dimethylbenzyl]-1,3-thiazol-4-yl}carbamate] |  |  | MIC [2, 5]: 0.0078 µg/mL (≈ 0.0201 µM)
24 | CCN/C=N/c1cc(C)c(Cc2nc(-c3cnc(C)cn3)cs2)cc1C [Example 105, N′-(2,5-Dimethyl-4-{[4-(5-methylpyrazin-2-yl)-1,3-thiazol-2-yl]methyl}phenyl)-N-ethylimidoformamide hydrochloride] |  | 0.0313 | 
25 | CCN(C)/C=N/c1cc(C)c(Cc2nc(C(=O)NC(C)(C)C(F)(F)F)cs2)cc1C [Example 109, 2-[4-({(E)-[Ethyl(methyl)amino]methylidene}amino)-2,5-dimethylbenzyl]-N-(1,1,1-trifluoro-2-methylpropan-2-yl)-1,3-thiazole-4-carboxamide hydrochloride] |  | 0.0039 | 
